# In patent publication US20220313656A1, “NEW CLASS OF ANTIBIOTICS HAVING LOW MIC-VALUES TOWARDS DIFFERENT STRAINS OF BACTERIA” (priority 2019, published 2022):
# Read-outs that look alike come from different tables or passages of the source.
# How the values were obtained:
# Test in all cases: MIC, serial dilution method (CLSI)
# [1] = tested on: S. aureus CC398; type: cell-based, Staphylococcus aureus
# Protocol: (§1) These inoculums were each in diluted 1:100 in Müller Hinton (MH) broth (Sigma, Copenhagen, Denmark). From the diluted inoculums 100 μl was transferred to each well in a 96-well plate and mixed with the compound to be MIC determined. The plate was incubated for 24 hours at 37° C. (without shaking). The MIC value was determined as the lowest concentration in which no bacterial growth could be visually detected. All MIC determinations were done in duplicates. […] Since all derivatives are new, no control strains (with reference MIC values) were available.
# [2] = tested on: S. aureus USA300; type: cell-based, Staphylococcus aureus
# Protocol: as §1
# [3] = tested on: E. faecalis; type: cell-based, Enterococcus faecalis
# Protocol: as §1
# [4] = tested on: E. coli APEC O2; type: cell-based, Escherichia coli
# Protocol: as §1
# [5] = tested on: Staphylococus pseudintermedius; type: cell-based, Staphylococcus pseudintermedius
# Protocol: as §1
# [6] = tested on: E. faecium; type: cell-based, Enterococcus faecium
# Protocol: as §1
# [7] = tested on: Bacillus cereus; type: cell-based
# Protocol: as §1
# [8] = tested on: Listeria monocytogenes; type: cell-based
# Protocol: as §1
# [9] = tested on: Salmonella enteritidis; type: cell-based
# Protocol: as §1
# [10] = tested on: Streptococcus equi; type: cell-based
# Protocol: as §1
# [11] = Staphylococcus aureus, MRSA, 24 h, read-out: MIC
# [12] = Staphylococcus aureus, USA300, 24 h, read-out: MIC
# [13] = Enterococcus faecalis, 24 h, read-out: MIC
# [14] = Escherichia coli, APECO2, 24 h, read-out: MIC
# [15] = Staphylococcus pseudintermedius, 24 h, read-out: MIC
# [16] = Enterococcus faecium, 24 h, read-out: MIC
# [17] = Salmonella enterica, ENTERITIDIS, 24 h, read-out: MIC
# [18] = S. aureus CC398 (MRSA strain), MH broth, 24 hours at 37° C., set to 256 if growth at […]
# [19] = S. aureus USA300, MH broth, 24 hours at 37° C., set to 256 if growth at […]
# [20] = E. faecalis, MH broth, 24 hours at 37° C., set to 256 if growth at […]
# [21] = E. coli APEC O2, MH broth, 24 hours at 37° C., set to 256 if growth at […]
# [22] = Staphylococus pseudintermedius, MH broth, 24 hours at 37° C., set to 256 if growth at […]
# [23] = E. faecium, MH broth, 24 hours at 37° C., set to 256 if growth at […]
# [24] = MH broth, 24 hours at 37° C., set to 256 if growth at […]
# [25] = Salmonella enteritidis, MH broth, 24 hours at 37° C., set to 256 if growth at […]
Structure (SMILES),"MIC [1, 11]","MIC [2, 12]","MIC [3, 13]","MIC [4, 14]","MIC [5, 15]","MIC [6, 16]","MIC ([7]; 24 h, read-out: MIC)","MIC ([8]; 24 h, read-out: MIC)","MIC [9, 17]","MIC ([10]; 24 h, read-out: MIC)","MIC [1, 18]","MIC [2, 19]","MIC [3, 20]","MIC [4, 21]","MIC [5, 22]","MIC [6, 23]","MIC [7, 24]","MIC [8, 24]","MIC [9, 25]","MIC [10, 24]"
"CN(C)CC/C=C1/c2ccccc2Sc2ccc(Cl)cc21.Cl [Compound S34, (Z)-3-(2-chloro-9H-thioxanthen-9-ylidene)-N,N-dimethylpropan-1-amine hydrochloride, reference compound]",32 µg/mL,32 µg/mL,32 µg/mL,64 µg/mL,32 µg/mL,32 µg/mL,64 µg/mL,32 µg/mL,128 µg/mL,256 µg/mL,–,–,–,–,–,–,–,–,–,–
"CC[N+](C)(C)CC/C=C1/c2ccccc2Sc2ccc(Cl)cc21.[Br-] [Compound S36, (Z)-3-(2-chloro-9H-thioxanthen-9-ylidene)-N-ethyl-N,N-dimethylpropan-1-aminium bromide]",32 µg/mL,32 µg/mL,128 µg/mL,256 µg/mL,32 µg/mL,128 µg/mL,64 µg/mL,128 µg/mL,256 µg/mL,256 µg/mL,–,–,–,–,–,–,–,–,–,–
"C[N+](C)(C)CC/C=C1/c2ccccc2Sc2ccc(Cl)cc21.[I-] [Compound S35, (Z)-3-(2-chloro-9H-thioxanthen-9-ylidene)-N,N,N-trimethylpropan-1-aminium iodide]",256 µg/mL,256 µg/mL,256 µg/mL,256 µg/mL,256 µg/mL,256 µg/mL,128 µg/mL,256 µg/mL,256 µg/mL,256 µg/mL,–,–,–,–,–,–,–,–,–,–
"CSc1ccc2c(c1)N(CCC1CCCC[N+]1(C)C)c1ccccc1S2.[I-] (stereo not drawn) [Compound S24, 1,1-dimethyl-2-(2-(2-(methylthio)-10H-phenothiazin-10-yl)ethyl)piperidin-1-ium iodide]",16 µg/mL,16 µg/mL,128 µg/mL,256 µg/mL,8 µg/mL,64 µg/mL,16 µg/mL,32 µg/mL,128 µg/mL,8 µg/mL,–,–,–,–,–,–,–,–,–,–
"CCCCC[N+](C)(C)CC/C=C1/c2ccccc2Sc2ccc(Cl)cc21.[Br-] [Compound S38, (Z)—N-(3-(2-chloro-9H-thioxanthen-9-ylidene)propyl)-N,N-dimethylpentan-1-aminium bromide]",4 µg/mL,4 µg/mL,16 µg/mL,64 µg/mL,2 µg/mL,16 µg/mL,8 µg/mL,8 µg/mL,64 µg/mL,2 µg/mL,–,–,–,–,–,–,–,–,–,–
CCOC(=O)CC[N+](C)(C)CCCN1c2ccccc2Sc2ccc(Cl)cc21 [Chlorpromazine 3-Ethoxy-3-oxo-1-propyl],–,–,–,–,–,–,–,–,–,–,64 µg/mL,64 µg/mL,64 µg/mL,128 µg/mL,32 µg/mL,32 µg/mL,128 µg/mL,64 µg/mL,64 µg/mL,32 µg/mL
"C[N+](C)(C)CCCN1c2ccccc2Sc2ccc(Cl)cc21.[I-] [Compound S2, 3-(2-chloro-10H-phenothiazin-10-yl)-N,N,N-trimethylpropan-1-aminium iodide]",32 µg/mL,32 µg/mL,128 µg/mL,256 µg/mL,8 µg/mL,32 µg/mL,32 µg/mL,64 µg/mL,256 µg/mL,16 µg/mL,–,–,–,–,–,–,–,–,–,–
CSc1ccc2c(c1)N(CCC1CCCC[N+]1(C)Cc1ccccc1)c1ccccc1S2 (stereo not drawn) [Thioridazine Benzyl],–,–,–,–,–,–,–,–,–,–,2 µg/mL,2 µg/mL,8 µg/mL,128 µg/mL,2 µg/mL,8 µg/mL,2 µg/mL,4 µg/mL,64 µg/mL,2 µg/mL
"CCCCCCCCCCCC[N+]1(C)CCCCC1CCN1c2ccccc2Sc2ccc(SC)cc21.[Br-] (stereo not drawn) [Compound S29, 1-dodecyl-1-methyl-2-(2-(2-(methylthio)-10H-phenothiazin-10-yl)ethyl)piperidin-1-ium bromide]",2 µg/mL,4 µg/mL,4 µg/mL,64 µg/mL,2 µg/mL,2 µg/mL,2 µg/mL,2 µg/mL,64 µg/mL,2 µg/mL,–,–,–,–,–,–,–,–,–,–
C=CC[N+](C)(C)CCC=C1c2ccccc2Sc2ccc(Cl)cc21 [Chlorprothixene 2-Propene-1-yl],–,–,–,–,–,–,–,–,–,–,16 µg/mL,16 µg/mL,128 µg/mL,128 µg/mL,8 µg/mL,64 µg/mL,32 µg/mL,32 µg/mL,128 µg/mL,8 µg/mL

# Continued, values first:
"MIC [1, 11]","MIC [2, 12]","MIC [3, 13]","MIC [4, 14]","MIC [5, 15]","MIC [6, 16]","MIC ([7]; 24 h, read-out: MIC)","MIC ([8]; 24 h, read-out: MIC)","MIC [9, 17]","MIC ([10]; 24 h, read-out: MIC)","MIC [1, 18]","MIC [2, 19]","MIC [3, 20]","MIC [4, 21]","MIC [5, 22]","MIC [6, 23]","MIC [7, 24]","MIC [8, 24]","MIC [9, 25]","MIC [10, 24]",Structure (SMILES)
16 µg/mL,16 µg/mL,128 µg/mL,256 µg/mL,8 µg/mL,32 µg/mL,32 µg/mL,32 µg/mL,256 µg/mL,16 µg/mL,–,–,–,–,–,–,–,–,–,–,"CC[N+](C)(C)CCCN1c2ccccc2Sc2ccc(Cl)cc21.[Br-] [Compound S3, 3-(2-chloro-10H-phenothiazin-10-yl)-N-ethyl-N,N-dimethylpropan-1-aminium bromide]"
64 µg/mL,64 µg/mL,256 µg/mL,256 µg/mL,64 µg/mL,128 µg/mL,256 µg/mL,256 µg/mL,256 µg/mL,32 µg/mL,–,–,–,–,–,–,–,–,–,–,"C=CC[N+](C)(C)C(C)CN1c2ccccc2Sc2ccccc21.[Br-] (stereo not drawn) [Compound S41, N-(1-(10H-phenothiazin-10-yl)propan-2-yl)-N,N-dimethylprop-2-en-1-aminium bromide]"
32 µg/mL,8 µg/mL,32 µg/mL,64 µg/mL,4 µg/mL,16 µg/mL,8 µg/mL,8 µg/mL,64 µg/mL,4 µg/mL,–,–,–,–,–,–,–,–,–,–,"CCCCC[N+](C)(C)C(C)CN1c2ccccc2Sc2ccccc21.[Br-] (stereo not drawn) [Compound S17, N-(1-(10H-phenothiazin-10-yl)propan-2-yl)-N,N-dimethylpentan-1-aminium bromide]"
128 µg/mL,128 µg/mL,128 µg/mL,128 µg/mL,64 µg/mL,256 µg/mL,256 µg/mL,128 µg/mL,256 µg/mL,64 µg/mL,–,–,–,–,–,–,–,–,–,–,"CC(CN1c2ccccc2Sc2ccccc21)N(C)C.Cl (stereo not drawn) [Compound S12, N,N-dimethyl-1-(10H-phenothiazin-10-yl)propan-2-amine hydrochloride, reference compound]"
–,–,–,–,–,–,–,–,–,–,16 µg/mL,16 µg/mL,128 µg/mL,128 µg/mL,16 µg/mL,64 µg/mL,32 µg/mL,32 µg/mL,128 µg/mL,16 µg/mL,CC(CN1c2ccccc2Sc2ccccc21)[N+](C)(C)Cc1ccccc1 (stereo not drawn) [Promethazine Benzyl]
